Reference: US20240124408A1 (Sanofi, priority 2020, published 2024)

Columns and labels:
[1] = molecular target: T1, human TRPM8 (Homo sapiens, UniProt Q7Z2W7); experiment: In vitro human TRPM8 fluorescence calcium flux assay (recombinant CHO cells, Fluo4-AM, FDSS6000); assay type: cell-based; conditions: recombinant CHO cells expressing human TRPM8; menthol-related EC50, normalized to 100 μM menthol
T1 construct: expressed in transfected cells; host or cells: CHO (p658 mammalian expression vector)
T1 sequence (Q7Z2W7 whole entry): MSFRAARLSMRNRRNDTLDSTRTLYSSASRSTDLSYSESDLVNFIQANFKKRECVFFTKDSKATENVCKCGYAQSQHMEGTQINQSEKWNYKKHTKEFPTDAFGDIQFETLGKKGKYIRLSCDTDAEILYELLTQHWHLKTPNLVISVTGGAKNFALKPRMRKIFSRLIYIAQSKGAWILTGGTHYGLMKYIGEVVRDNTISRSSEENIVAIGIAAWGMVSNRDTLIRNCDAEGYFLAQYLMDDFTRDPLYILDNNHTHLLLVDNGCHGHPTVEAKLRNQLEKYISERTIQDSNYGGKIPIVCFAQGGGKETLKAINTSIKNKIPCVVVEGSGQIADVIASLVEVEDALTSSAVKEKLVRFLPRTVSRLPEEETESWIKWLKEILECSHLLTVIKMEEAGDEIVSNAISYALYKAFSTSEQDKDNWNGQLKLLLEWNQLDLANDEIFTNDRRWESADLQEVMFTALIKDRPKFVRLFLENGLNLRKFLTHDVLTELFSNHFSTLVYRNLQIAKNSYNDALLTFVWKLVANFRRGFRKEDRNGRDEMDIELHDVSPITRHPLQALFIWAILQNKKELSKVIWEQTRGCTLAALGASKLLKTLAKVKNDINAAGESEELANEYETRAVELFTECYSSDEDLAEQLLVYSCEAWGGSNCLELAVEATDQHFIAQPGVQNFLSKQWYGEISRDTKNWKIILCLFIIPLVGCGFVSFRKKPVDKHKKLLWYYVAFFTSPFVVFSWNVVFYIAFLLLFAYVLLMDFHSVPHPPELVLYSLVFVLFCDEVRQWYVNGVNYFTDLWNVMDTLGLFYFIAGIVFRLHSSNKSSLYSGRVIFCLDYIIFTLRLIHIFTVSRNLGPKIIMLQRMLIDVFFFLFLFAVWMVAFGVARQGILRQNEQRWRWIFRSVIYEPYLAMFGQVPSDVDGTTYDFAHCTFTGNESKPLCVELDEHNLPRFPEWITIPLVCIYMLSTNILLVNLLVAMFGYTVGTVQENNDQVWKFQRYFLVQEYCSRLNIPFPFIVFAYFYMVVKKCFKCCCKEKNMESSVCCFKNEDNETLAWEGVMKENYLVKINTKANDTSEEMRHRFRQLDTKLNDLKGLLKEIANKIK
Method: (§1) In Vitro Pig and Human TRPM8 Fluorescence Calcium Flux Assays
(§2) For functional expression of TRPM8, the full-length cDNA encoding human (NM_024080) and pig (XM_001927892.1) TRPM8 sequences were subcloned into p658 and pcDNA5/FRT/TO mammalian expression vectors, respectively. Engineered recombinant CHO cell lines expressing human or pig TRPM8 were generated. Culture media was Ham-F12 with 10% FCS for both lines, and for the pig cell line only 400 μg/ml hygromycin B and 30 μg/mL blasticidin were added as selection antibiotics (all reagents were obtained from Invitrogen, Fisher Scientific). Cells were grown in culture flasks up to 80% confluence where they were harvested using accutase (Sigma, MO, USA) to detach the cells by enzymatic dissociation and either seeded directly into assay plates or cryopreserved for future use.
(§3) For calcium flux assays, cells were plated into clear base poly-D-lysine coated 384-well plates (BD Biosciences, NJ USA) at a density of 15,000 cells per well in appropriate culture medium and grown overnight. The following day, all medium was removed then the cells were incubated with 2 μM of Fluo4-AM Dye (Molecular Probes) prepared in complete HBSS assay buffer containing 20 mM HEPES, 0.1% BSA, and 2.5 mM probenecid at room temperature for one hour. Following incubation, plates were inserted into a FDSS6000 instrument (Hamamatsu, Photonics, Japan) instrument, where cells were challenged with compounds of the formula (at varying concentrations) and intracellular calcium was measured kinetically for 3 min after addition.
(§4) This protocol allowed the determination of an EC50 value, from the sixteen-point dose response data, for each compound of the formula tested. Maximal fluorescence intensity achieved upon addition of 100 μM menthol (stock solution prepared in ethanol from solid, Sigma-Aldrich) was exported from the FDSS and further analyzed using IDBS XLFit 5. Data were normalized to the average 100 μM menthol response (maximum control wells) included in each plate. The dose response curves from the average of wells for each data point were analyzed by using nonlinear regression of sigmoidal dose response (formula 205). Finally, the (menthol-related) EC50 values (Half maximal effective concentration) were calculated with the best-fit dose curve determined by IDBS XLFit 5 software.

[2] = molecular target: T2, pig TRPM8 (Sus scrofa, UniProt F1SM15); experiment: In vitro pig TRPM8 fluorescence calcium flux assay (recombinant CHO cells, Fluo4-AM, FDSS6000); assay type: cell-based; conditions: recombinant CHO cells expressing pig TRPM8; menthol-related EC50, normalized to 100 μM menthol
T2 construct: expressed in transfected cells; host or cells: CHO (pcDNA5/FRT/TO vector; hygromycin B and blasticidin selection)
T2 sequence (F1SM15 1-1104): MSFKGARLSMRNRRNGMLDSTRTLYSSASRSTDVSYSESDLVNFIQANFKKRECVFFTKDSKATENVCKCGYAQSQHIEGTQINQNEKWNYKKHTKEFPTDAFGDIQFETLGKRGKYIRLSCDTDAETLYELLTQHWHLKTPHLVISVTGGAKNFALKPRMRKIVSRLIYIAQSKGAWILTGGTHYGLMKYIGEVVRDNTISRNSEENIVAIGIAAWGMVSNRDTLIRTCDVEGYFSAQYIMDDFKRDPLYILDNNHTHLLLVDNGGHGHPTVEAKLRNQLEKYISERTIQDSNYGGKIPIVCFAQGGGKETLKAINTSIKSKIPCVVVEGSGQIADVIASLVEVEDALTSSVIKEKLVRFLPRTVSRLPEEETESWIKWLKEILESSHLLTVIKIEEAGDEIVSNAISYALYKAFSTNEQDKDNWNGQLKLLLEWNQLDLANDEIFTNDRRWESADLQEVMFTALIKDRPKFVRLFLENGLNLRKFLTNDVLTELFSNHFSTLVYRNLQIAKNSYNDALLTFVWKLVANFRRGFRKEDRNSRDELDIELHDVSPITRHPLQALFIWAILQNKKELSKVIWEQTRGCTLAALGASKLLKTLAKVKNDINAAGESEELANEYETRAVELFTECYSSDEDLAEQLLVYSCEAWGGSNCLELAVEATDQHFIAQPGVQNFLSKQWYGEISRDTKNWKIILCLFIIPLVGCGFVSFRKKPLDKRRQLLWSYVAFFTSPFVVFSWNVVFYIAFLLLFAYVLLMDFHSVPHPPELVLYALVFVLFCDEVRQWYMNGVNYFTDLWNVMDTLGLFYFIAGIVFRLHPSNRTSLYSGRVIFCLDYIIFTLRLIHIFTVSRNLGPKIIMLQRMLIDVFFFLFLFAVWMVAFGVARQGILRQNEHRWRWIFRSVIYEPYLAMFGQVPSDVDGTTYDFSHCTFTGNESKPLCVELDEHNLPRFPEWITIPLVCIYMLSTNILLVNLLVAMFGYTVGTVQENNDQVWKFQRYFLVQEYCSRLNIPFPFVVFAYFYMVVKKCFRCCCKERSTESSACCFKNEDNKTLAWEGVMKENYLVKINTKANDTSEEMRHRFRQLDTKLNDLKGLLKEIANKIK
Method: as §1, §2, §3, §4

Row | SMILES | EC50 [1] | EC50 [2]
1 | CC(C)[C@@H]1CC[C@@H](C)C[C@@]1(O)C(=O)NCc1cccc(CO)c1 [Example 161, (1S,2S,5R)-1-hydroxy-N-[[3-(hydroxymethyl)phenyl]methyl]-2-isopropyl-5-methyl-cyclohexanecarboxamide] | 882 nM | 516 nM
2 | CC(C)[C@@H]1CC[C@@H](C)C[C@@]1(O)C(=O)NC[C@@H](NC(=O)[C@@H](C)N)c1ccccc1 [Example 62, (1S,2S,5R)—N—((S)-2-((R)-2-aminopropanamido)-2-phenylethyl)-1-hydroxy-2-isopropyl-5-methylcyclohexane-1-carboxamide] | 1.6 nM | 2.3 nM
3 | COc1cc(CCNC(=O)[C@]2(O)C[C@H](C)CC[C@H]2C(C)C)cc(OC)c1O [Example 130, (1S,2S,5R)-1-hydroxy-N-[2-(4-hydroxy-3,5-dimethoxy-phenyl)ethyl]-2-isopropyl-5-methyl-cyclohexanecarboxamide] | 433 nM | 185 nM
4 | Cc1ccccc1CCNC(=O)[C@]1(O)C[C@H](C)CC[C@H]1C(C)C [Example 59, (1S,2S,5R)-1-hydroxy-2-isopropyl-5-methyl-N-(2-methylphenethyl)cyclohexane-1-carboxamide] | 6.2 nM | 4.3 nM
5 | CC(C)[C@@H]1CC[C@@H](C)C[C@@]1(O)C(=O)NCCc1cnccn1 [Example 131, (1S,2S,5R)-1-hydroxy-2-isopropyl-5-methyl-N-(2-pyrazin-2-ylethyl)cyclohexanecarboxamide] | 603 nM | 267 nM
6 | CC(C)[C@@H]1CC[C@@H](C)C[C@@]1(O)C(=O)NCC(=O)OCc1ccccc1 [Example 132, benzyl 2-[[(1S,2S,5R)-1-hydroxy-2-isopropyl-5-methyl-cyclohexanecarbonyl]amino]acetate] | 303 nM | 79.1 nM
7 | CC(C)[C@@H]1CC[C@@H](C)C[C@@]1(O)C(=O)NCCc1ccc(O)cc1O [Example 173, (1S,2S,5R)-N-[2-(2,4-dihydroxyphenyl)ethyl]-1-hydroxy-2-isopropyl-5-methyl-cyclohexanecarboxamide] | 24.6 nM | 21.7 nM
8 | CC(C)[C@@H]1CC[C@@H](C)C[C@@]1(O)C(=O)NCC(=O)c1ccc(Cl)cc1Cl [Example 137, (1S,2S,5R)-N-[2-(2,4-dichlorophenyl)-2-oxo-ethyl]-1-hydroxy-2-isopropyl-5-methyl-cyclohexanecarboxamide] | 125 nM | 41.6 nM
9 | CC(C)[C@@H]1CC[C@@H](C)C[C@@]1(O)C(=O)NCCc1ccc(S(N)(=O)=O)cc1 [Example 118, (1S,2S,5R)-1-hydroxy-2-isopropyl-5-methyl-N-[2-(4-sulfamoylphenyl)ethyl]cyclohexanecarboxamide] | 557 nM | 264 nM
10 | CC(C)[C@@H]1CC[C@@H](C)C[C@@]1(O)C(=O)NCC(=O)c1cc(F)cc(F)c1 [Example 138, (1S,2S,5R)-N-[2-(3,5-difluorophenyl)-2-oxo-ethyl]-1-hydroxy-2-isopropyl-5-methyl-cyclohexanecarboxamide] | 3.8 nM | 1.7 nM
11 | COC(=O)Cc1ccccc1CCNC(=O)[C@]1(O)C[C@H](C)CC[C@H]1C(C)C [Example 77, methyl 2-(2-(2-((1S,2S,5R)-1-hydroxy-2-isopropyl-5-methylcyclohexane-1-carboxamido)ethyl)phenyl)acetate] | 90 nM | 93 nM
12 | CC(C)[C@@H]1CC[C@@H](C)C[C@@]1(O)C(=O)NCC(=O)c1ccc(O)c(O)c1 [Example 100, (1S,2S,5R)—N-(2-(3,4-dihydroxyphenyl)-2-oxoethyl)-1-hydroxy-2-isopropyl-5-methylcyclohexane-1-carboxamide] | 2.2 nM | 2.9 nM
13 | Cc1oc(=O)oc1COC(=O)c1cccc(CCNC(=O)[C@]2(O)C[C@H](C)CC[C@H]2C(C)C)c1 [Example 29, (5-methyl-2-oxo-1,3-dioxol-4-yl)methyl 3-(2-((1S,2S,5R)-1-hydroxy-2-isopropyl-5-methylcyclohexane-1-carboxamido)ethy) benzoate] | 211 nM | 221 nM
14 | CC(C)[C@@H]1CC[C@@H](C)C[C@@]1(O)C(=O)NCc1c[nH]c2ccccc12 [Example 151] | 188 nM | 126 nM
15 | CC(C)[C@@H]1CC[C@@H](C)C[C@@]1(O)C(=O)NCC(O)(c1ccccc1)C(F)(F)F (single isomer, unassigned) [Example 83] | 168 nM | 136 nM
16 | CC(C)[C@@H]1CC[C@@H](C)C[C@@]1(O)C(=O)NCC1OC(=O)c2ccccc21 (mixture of isomers) [Example 17, (1S,2S,5R)-1-hydroxy-2-isopropyl-5-methyl-N-(((1RS)-3-oxo-1,3-dihydroisobenzofuran-1-yl)methyl) cyclohexane-1-carboxamide] | 410 nM | 191 nM
17 | CC(C)[C@@H]1CC[C@@H](C)C[C@@]1(O)C(=O)NCCc1c[nH]c2ccc(O)cc12 [Example 169, (1S,2S,5R)-1-hydroxy-N-[2-(5-hydroxy-1H-indol-3-yl)ethyl]-2-isopropyl-5-methyl-cyclohexanecarboxamide] | 20.9 nM | 27.4 nM
18 | COc1ccc(OC)c(CCNC(=O)[C@]2(O)C[C@H](C)CC[C@H]2C(C)C)c1 [Example 128, (1S,2S,5R)-N-[2-(2,5-dimethoxyphenyl)ethyl]-1-hydroxy-2-isopropyl-5-methyl-cyclohexanecarboxamide] | 303 nM | 212 nM
19 | CC(C)[C@@H]1CC[C@@H](C)C[C@@]1(O)C(=O)NC(CCO)c1cccc(O)c1 (stereo partly drawn) [Example 163, (1S,2S,5R)-1-hydroxy-N-[3-hydroxy-1-(3-hydroxyphenyl)propyl]-2-isopropyl-5-methyl-cyclohexanecarboxamide] | 658 nM | 940 nM
20 | CC(C)[C@@H]1CC[C@@H](C)C[C@@]1(O)C(=O)NCC(=O)c1cccc(O)c1O [Example 104, (1S,2S,5R)—N-(2-(2,3-dihydroxyphenyl)-2-oxoethyl)-1-hydroxy-2-isopropyl-5-methylcyclohexane-1-carboxamide] | 1.1 nM | 0.6 nM
21 | COCCOCCOCCOc1cccc(CCNC(=O)[C@]2(O)C[C@H](C)CC[C@H]2C(C)C)c1 [Example 185, (1S,2S,5R)-1-hydroxy-2-isopropyl-N-[2-[3-[2-[2-(2-methoxyethoxy)ethoxy]ethoxy]phenyl]ethyl]-5-methyl-cyclohexanecarboxamide] | 110 nM | 68.1 nM
22 | CC(C)[C@@H]1CC[C@@H](C)C[C@@]1(O)C(=O)NCC1OCCc2ccccc21 (single isomer, unassigned) [Example 98] | 52.8 nM | 64.7 nM
23 | CC(C)[C@@H]1CC[C@@H](C)C[C@@]1(O)C(=O)NCC(=O)c1ccc(F)cc1 [Example 135, (1S,2S,5R)-N-[2-(4-fluorophenyl)-2-oxo-ethyl]-1-hydroxy-2-isopropyl-5-methyl-cyclohexanecarboxamide] | 2.1 nM | 1.1 nM
24 | CC(C)[C@@H]1CC[C@@H](C)C[C@@]1(O)C(=O)NCC1OCCc2ccccc21 (single isomer, unassigned) [Example 97] | 11.1 nM | 29.2 nM
25 | COc1ccc2c(c1)OCC2CNC(=O)[C@]1(O)C[C@H](C)CC[C@H]1C(C)C (stereo partly drawn) [Example 154, (1S,2S,5R)-1-hydroxy-2-isopropyl-N-[(6-methoxy-2,3-dihydrobenzofuran-3-yl)methyl]-5-methyl-cyclohexanecarboxamide] | 85 nM | 46 nM
26 | CC(C)[C@@H]1CC[C@@H](C)C[C@@]1(O)C(=O)NC1CCOC1=O (stereo partly drawn) [Example 112, (1S,2S,5R)-1-hydroxy-2-isopropyl-5-methyl-N-(2-oxotetrahydrofuran-3-yl)cyclohexane-1-carboxamide] | 1580 nM | 892 nM
27 | COc1cccc(C(F)(F)CNC(=O)[C@]2(O)C[C@H](C)CC[C@H]2C(C)C)c1 [Example 188, (1S,2S,5R)—N-[2,2-difluoro-2-(3-methoxyphenyl)ethyl]-1-hydroxy-2-isopropyl-5-methyl-cyclohexanecarboxamide] | 76.2 nM | 24.1 nM
28 | CC(C)[C@@H]1CC[C@@H](C)C[C@@]1(O)C(=O)NCC(=O)c1ccc(Cl)cc1 [Example 134, (1S,2S,5R)-N-[2-(4-chlorophenyl)-2-oxo-ethyl]-1-hydroxy-2-isopropyl-5-methyl-cyclohexanecarboxamide] | 3.4 nM | 1.3 nM
